Laboratory results: patent publication US20230338647A1, “SUBCUTANEOUSLY IMPLANTED DEVICE FOR GASTROINTESTINAL ADMINISTRATION OF SUBSTANCES” (Endopump Ltd., priority 2018, published 2023)
Values belong to the compound of their own block, whether it stands above or below them.

What was measured:
[1] = Dissolution of L-DOPA/carbidopa/ascorbic acid mixture in 0.2 N HCl; assay type: physicochemical; settings: 200 mg L-DOPA, 50 mg carbidopa, 2.5 mg ascorbic acid in 3.5 ml of 0.2 N HCl, vortexed and sonicated
Procedure: 3.5 ml of 0.2 N HCl were added to 200 mg of L- DOPA, 50 mg of carbidopa and 2.5 mg of ascorbic acid and the mixture was vortexed and then sonicated. […] Then 1N HCl was added dropwise till all L-DOPA was dissolved.

[2] = Solubility of levodopa esters and carbidopa propyl ester in water acidified with acetic acid; assay type: physicochemical
Procedure: Without limitation, in one example, substance 14 may include several levodopa esters, including the ethyl ester, propyl ester, isopropyl ester and butyl ester. In experiments, these esters were successfully dissolved in water to which was added acetic acid until attaining pH 5 (in some cases pH 4.5). […] The propyl ester of carbidopa was solubilized under the same conditions and a clear solution of 100 mg/ml of the carbidopa propyl ester was obtained. A mixture of each of the above levodopa esters with carbidopa propyl ester was prepared at a ratio of 4:1 (levodopa ester/carbidopa ester) and a clear solution was obtained. The solution of the mixture was stable for at least two weeks based on chromatographic determination of levodopa esters and carbidopa ester. The formulations of the levodopa esters together with carbidopa ester were prepared in diluted acetic acid and ascorbic acid at a pH 5. Each one of the above mentioned esters have good stability.

SMILES: N[C@@H](Cc1ccc(O)c(O)c1)C(=O)O [L- DOPA, L-3,4-dihydroxyphenylalanine]
dissolution of L-DOPA (in words) [1]: did not fully dissolve

SMILES: CCCOC(=O)C(C)(Cc1ccc(O)c(O)c1)NN (centres unmarked) [carbidopa propyl ester]
soluble at a concentration of / clear solution obtained ([2]; water with acetic acid added until pH 5 (in some cases pH 4.5)): ≥ 100 mg/mL

Now from value to compound:

relative solubility among the levodopa esters (in words) [2]: highest solubility
SMILES: CCOC(=O)[C@@H](N)Cc1ccc(O)c(O)c1 [ethyl ester]

solubility ([2]; pH 5, aqueous buffer, thermodynamic from solid): ≥ 400 mg/mL
SMILES: CC(C)OC(=O)[C@@H](N)Cc1ccc(O)c(O)c1 [isopropyl ester]

soluble at a concentration of / clear solution obtained ([2]; pH 5): ≥ 400 mg/mL
SMILES: CCCOC(=O)[C@@H](N)Cc1ccc(O)c(O)c1 [propyl ester]
